Structures are written as SMILES. Several values for one entry are separate records, joined by “and”; a condition that tells them apart may be missing. Identical values can stand only once.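 Five compound concentrations were applied to cells in 96-well plates for 48 hours; endpoints were derived by simple linear interpolation of the resulting dose-response curve. GI50 marks 50% less growth. The concentration for full growth arrest is given as TGI.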

Some test systems named below: BT-549 breast; LOX IMVI melanoma; A498 renal; HOP-62 NSCLC; UACC-257 melanoma; EKVX NSCLC; K-562 leukemia; DU-145 prostate; RXF 393 renal; HCC-2998 colon.
What all share (test): growth of human tumour cells (NCI), 48 h

For `COc1ccc(S(=O)(=O)O)cc1NS(=O)(=O)c1ccc(C)cc1`, the TGI in the assay with BT-549 breast, in the assay with LOX IMVI melanoma, in the assay with A498 renal, in the assay on HOP-62 NSCLC, in the assay with UACC-257 melanoma and in the assay with EKVX NSCLC was > 100 µM throughout. Also, the TGI with K-562 leukemia and in the assay on DU-145 prostate was > 100 µM in each case.

With `CC(=O)OC1CCC2(C)C(CCC3C2CCC2(C)C(C4=CC(=O)OC4)CCC32)C1` (stereo not drawn), the GI50 in the assay on RXF 393 renal was 8.73 µM; with BT-549 breast, 4.19 µM; in the assay with LOX IMVI melanoma, 0.42 µM; in the assay on A498 renal, 1.43 µM; in the assay with HOP-62 NSCLC, 14.5 µM; in the assay with HCC-2998 colon, 23.8 µM. The GI50 with K-562 leukemia was 2.02 µM; in the assay with DU-145 prostate, 14.7 µM. Besides, the TGI in the assay with RXF 393 renal was 28.7 µM; in the assay on BT-549 breast, 25.4 µM; in the assay with LOX IMVI melanoma, > 100 µM; with A498 renal, 3.4 µM; in the assay on HOP-62 NSCLC it was 38.3 µM; in the assay on HCC-2998 colon, > 100 µM. In addition, the TGI in the assay with K-562 leukemia is 5.27 µM; in the assay on DU-145 prostate, 40.3 µM.

For the compound `O=C1CC(c2ccccc2)Cc2nc3ccc(Cl)cc3cc21` (stereo not drawn), the GI50 is 0.503 µM in the assay with BT-549 breast; 0.626 µM with LOX IMVI melanoma; 0.0503 µM in the assay with A498 renal; 0.459 µM with HOP-62 NSCLC; 2.39 µM with HCC-2998 colon; 15.6 µM with UACC-257 melanoma. Further, the GI50 was 0.732 µM in the assay on EKVX NSCLC, 0.0859 µM in the assay on K-562 leukemia and 0.217 µM with DU-145 prostate. Besides, the TGI was 11.3 µM with BT-549 breast; 26.2 µM in the assay on LOX IMVI melanoma; 0.401 µM with A498 renal; > 100 µM in the assay with HOP-62 NSCLC; 20.2 µM in the assay with HCC-2998 colon; > 85.4 µM with UACC-257 melanoma. Also, the TGI in the assay with EKVX NSCLC, with K-562 leukemia and in the assay on DU-145 prostate was > 100 µM in each case.

With `CC[C@](O)(C(=O)O)c1cc2n(c(=O)c1CO)Cc1cc3ccccc3nc1-2`, the GI50 in the assay on RXF 393 renal is 0.0278 µM and < 0.0225 µM; in the assay on BT-549 breast it was 0.107 µM; in the assay with LOX IMVI melanoma, 0.00507 µM and 0.0264 µM; with A498 renal it was 0.015 µM and 0.0448 µM; with HOP-62 NSCLC it was 0.025 µM; in the assay on UACC-257 melanoma, 0.0236 µM and 0.0374 µM and 0.0873 µM. Moreover, the GI50 was 0.283 µM and 0.63 µM in the assay on EKVX NSCLC; 0.0383 µM and 0.137 µM and 0.0357 µM in the assay on K-562 leukemia; < 0.0025 µM with DU-145 prostate. Also, the TGI in the assay with RXF 393 renal is 1.1 µM and 0.476 µM and 0.15 µM; in the assay on BT-549 breast, 11.5 µM and 18.5 µM; with LOX IMVI melanoma, 0.307 µM and 0.686 µM and 0.652 µM; in the assay with A498 renal, 0.114 µM and 0.261 µM and 0.145 µM; with UACC-257 melanoma, 0.278 µM and 0.953 µM and 0.582 µM; in the assay with K-562 leukemia, 12.9 µM and 88 µM. For the same compound, the TGI with DU-145 prostate was 0.559 µM and 0.417 µM.

For the compound `COc1cc(/C=C/C(=O)c2c(C)n([O-])c3cc(C)c(C)cc3[n+]2=O)cc(OC)c1OC`, the GI50 is 11.8 µM in the assay on BT-549 breast; 11.9 µM in the assay with LOX IMVI melanoma; 12.1 µM in the assay with A498 renal; 20.2 µM with HOP-62 NSCLC; 14.2 µM in the assay on HCC-2998 colon; 16.7 µM in the assay with UACC-257 melanoma. Also, the values for the GI50 in the assay with EKVX NSCLC, in the assay with K-562 leukemia and in the assay with DU-145 prostate were 18 µM, 18.7 µM and 13.1 µM, respectively. Further, the TGI in the assay with BT-549 breast came to 30.8 µM; in the assay with LOX IMVI melanoma, 29.2 µM; in the assay on A498 renal, 37.7 µM; with HOP-62 NSCLC, 58.2 µM; with HCC-2998 colon, 32.6 µM; with UACC-257 melanoma, 48.8 µM. Besides, the TGI in the assay on EKVX NSCLC was 42.1 µM; in the assay on K-562 leukemia, > 100 µM; with DU-145 prostate, 30.8 µM.

For `COC(=O)Nc1nc2c(OC)c(OC)c(OC)cc2[nH]1`, the GI50 in the assay with RXF 393 renal is 18.4 µM; in the assay with BT-549 breast, 50.4 µM; in the assay on LOX IMVI melanoma, 49 µM; in the assay on A498 renal, 25.5 µM; in the assay with HOP-62 NSCLC it was 33.5 µM; in the assay with HCC-2998 colon, 55.6 µM. Besides, the GI50 in the assay with UACC-257 melanoma was > 100 µM; in the assay with K-562 leukemia, 5.43 µM; with DU-145 prostate, 32 µM. Also, the TGI in the assay with RXF 393 renal is 66 µM; in the assay with BT-549 breast it was > 100 µM; with LOX IMVI melanoma, > 100 µM; in the assay with A498 renal it was > 100 µM; with HOP-62 NSCLC it was > 100 µM; with HCC-2998 colon, > 100 µM. In addition, the TGI with UACC-257 melanoma, with K-562 leukemia and in the assay with DU-145 prostate was > 100 µM each time.

Take `CCOC(=O)Nc1nc2c(F)c(F)c(F)cc2s1`: the GI50 was 29.6 µM in the assay on RXF 393 renal; 58.3 µM in the assay with BT-549 breast; > 100 µM in the assay on LOX IMVI melanoma; 31.8 µM in the assay on A498 renal; 33.9 µM with HOP-62 NSCLC; > 100 µM in the assay on HCC-2998 colon. Also, the values for the GI50 in the assay with UACC-257 melanoma, in the assay with K-562 leukemia and with DU-145 prostate were > 100 µM, > 100 µM and 75.1 µM, respectively. For the same compound, the TGI in the assay on RXF 393 renal, with BT-549 breast, in the assay with LOX IMVI melanoma, in the assay with A498 renal, in the assay on HOP-62 NSCLC and in the assay on HCC-2998 colon was > 100 µM throughout. Besides, the TGI in the assay on UACC-257 melanoma, in the assay on K-562 leukemia and in the assay on DU-145 prostate was > 100 µM in each case.

For the compound `COc1cc(C/C=C/c2ccccc2)c(OC)cc1O`, the TGI in the assay with BT-549 breast is 58.4 µM; with LOX IMVI melanoma, 37.4 µM; in the assay with A498 renal, > 100 µM; in the assay with HCC-2998 colon, 37.4 µM; in the assay on UACC-257 melanoma it was > 100 µM; in the assay on EKVX NSCLC, 33.3 µM. Further, the TGI in the assay with K-562 leukemia amounted to 31.6 µM; in the assay on DU-145 prostate, 37.3 µM.

In the case of `Cc1sc2nc(-c3ccccn3)c(/C=N/N=C(N)N)n2c1C`, the GI50 is 5.56 µM with RXF 393 renal; 1.92 µM in the assay on BT-549 breast; 4.01 µM with LOX IMVI melanoma; 11.8 µM with A498 renal; 8.06 µM in the assay on HOP-62 NSCLC; 10.7 µM with UACC-257 melanoma. Moreover, the results for the GI50 in the assay with EKVX NSCLC, in the assay with K-562 leukemia and with DU-145 prostate were 8.63 µM, > 51.5 µM and 4.88 µM, respectively. Besides, the TGI in the assay with RXF 393 renal came to 16.1 µM; with BT-549 breast, 4.39 µM; in the assay on LOX IMVI melanoma, 8.26 µM; in the assay on A498 renal, 24.4 µM; in the assay on HOP-62 NSCLC it was 16.9 µM; in the assay on UACC-257 melanoma it was 27 µM. The figures for the TGI in the assay with EKVX NSCLC, in the assay with K-562 leukemia and with DU-145 prostate were 19.8 µM, > 100 µM and 12.6 µM, respectively.

These data come from PubChem BioAssay (NCI).
